Experimental data as given in patent publication US6841533B1, “Conformationally constrained backbone cyclized interleukin-6 antagonists” (Peptor Limited, priority 1995, dated 2005).
Numbered stars: 1 amine (or outer) side, 2 acyl side, 3 side chain; on linkers, the order of the positions; unused ones are H or OH. Bridge positions count the residues as written; N and C are the ends. Square brackets hold non-standard residues; d marks the D form. Peptide text beside a SMILES is read from it. Ala(Nα-(CH2)3CO) = C[C@@H](C(=O)[*:2])N(CCCC(=O)[*:3])[*:1]; Ala(Nα-(CH2)3NH) = C[C@@H](C(=O)[*:2])N(CCCN[*:3])[*:1]

Legend:
[1] = test system: IL-6 mediated acute-phase response; assay: IL-6 mediated acute-phase response (turpentine model); assay type: in vivo, mice
From the text: The objective was to establish a simple first-line in-vivo model, for testing the activity of IL-6 inhibitors. The turpentine model was chosen based on the principal role that IL-6 plays in this inflammatory response.
Systemic and localized inflammation elicit a general reaction in the organism, known as the acute phase response, which includes fever, loss of body weight, hypoglycemia, and changes in the serum levels of several plasma proteins produced by the liver. IL-6 is an important mediator of the acute-phase reaction (see Heinrich et.al., Biochemistry J. 1 265:621, 1990 for a comprehensive review), together with IL-1 and TNF-α. It has been shown previously that sterile tissue damage caused by injection of turpentine induces an acute-phase reaction, and that IL-6 is an essential mediator of this response (Rokita et.al., Cytokine 5:454, 1993).
IL-6 knock-out (-/-) and matched wild-type (C57/Black; CB) mice were used. Sterile tissue damage was induced by subcutaneous injection of turpentine, 0.1 ml, into both hind limbs. IL-6 was determined in the serum by ELISA (QuantikineM, R&D). For liver acute-phase proteins, Fibrinogen was determined in citrated plasma, by the calcium method.
PTR 5045 (SEQ ID NO:75) was tested in this model in compare to the non-relevant control peptide PTR 4041 (SEQ ID NO:33) (Lys-GlyC2-Leu-Ile-Gln-Leu-Phe-GlyN3-Lys-Lys-NH2).

[2] = Metabolic stability in vitro against renal homogenate; assay type: in vitro ADME
Method: The special feature of the novel backbone cyclic peptide analogs is their metabolic stability as tested in vitro against degradation of the most aggressive enzyme mixture in the body (e.g., renal homogenate). PTR 5045 is stable under these conditions for up to 24 hours.

[3] = test system: B16.F10.9 melanoma cells; conditions: 200 ng/ml IL-6 and 125 ng/ml sIL-6R, three days, FIG. 2
From the text: The F10.9 sub-line of B16 (murine melanoma) expresses gp130 but not IL-6R. Addition of human IL-6 and human IL-6R, or a chimera of IL-6/IL-6R results in differentiation which is associated with growth arrest of the cells. Inhibition of IL-6 results in continued growth. Since the end point of this assay is cell growth rather than cell death, this assay system was used primarily in order to differentiate between suspected toxic effects observed on B9 or T1165 cells, and true inhibition of IL-6 activity.
Evaluation of the results in this assay is possible using two methods. One method uses vital dyes for monitoring cell growth. The second method comprises visual observation of the cell morphology and establishing a cut off point based on the following observations:
Cells which are not treated with IL-6 create a monolayer that covers almost all the surface area. Treatment with IL-6 causes growth arrest and a morphological change: the cells become very narrow and elongated as compared to the more spread out shape of the non-treated cells.
Peptides were added to B16.F10.9 melanoma cells in the presence of 200 ng/ml IL-6 and 125 ng/ml sIL-6R. Incubation for three days.

[4] = mice, turpentine, 1 or 10 mg/kg of peptide

time stable against degradation by renal homogenate [2]: up to 24 hours
SMILES: CC(C)C[C@@H]1NC(=O)[C@H](C)N(C(=O)[C@H](Cc2ccccc2)NC(=O)[C@@H](CCCNC(=N)N)NC(=O)[C@H](CCCCN)NC(=O)[C@H](CCCNC(=N)N)NC(=O)[C@@H](N)Cc2c[nH]c3ccccc23)CCCC(=O)NCCCN([C@@H](C)C(N)=O)C(=O)[C@@H](Cc2ccc(O)cc2)NC(=O)[C@H](CCCNC(=N)N)NC1=O [PTR 5045, Trp-Arg-Lys-(D)Arg-Phe-AlaC3-Leu-Arg-(D)Tyr-AlaN3-NH2] (H-WRK[dR]F[Ala(Nα-(CH2)3CO)]LR[dY][Ala(Nα-(CH2)3NH)]-NH2; lactam 6-10)
Mean weight loss % [1, 4]: −3.93% | Mean weight loss grams [1, 4]: −1.35 grams | reduction of the effect mediated by IL-6 on body weight during acute inflammation ([1]; versus control peptide PTR 4041): reduces by about half | concentration that fully blocks IL-6 activity [3]: about 250 nM
